Results on 2 molecules are retold here after ChEMBL document CHEMBL1130970, “Design and synthesis of a water-soluble taxol analogue: taxol-sialyl conjugate” (Bioorg Med Chem Lett, 1998).

Data set [1] has as its system A-427. Briefly: Inhibitory concentration in human lung carcinoma A427 cell line. Type of data set: functional, cell-based.
In data set [2] the test system is A-427. Briefly: Inhibitory concentration in human lung carcinoma A427/VCR cell line. The data set is classed as functional, cell-based.
Data set [3] can be described thus: Solubility was determined. Type of data set: physicochemical.
Another data set is filed under the species Sus scrofa. The data set is described as follows: Concentration that induces microtubule assembly (tubulin obtained from porcine brain) by 50% in the absence of GTP. The data set is classed as functional.

Converted amounts (≈) assume the structure as drawn.

As for `CC(=O)NC1C(O)CC(OCCOCCOCCNC(=O)O[C@H]2C[C@H]3OC[C@@]3(OC(C)=O)C3[C@H](OC(=O)c4ccccc4)[C@]4(O)C[C@H](OC(=O)[C@H](O)[C@@H](NC(=O)c5ccccc5)c5ccccc5)C(C)=C([C@@H](OC(C)=O)C(=O)[C@@]32C)C4(C)C)(C(=O)O)OC1[C@H](O)[C@@H](O)CO` (stereo not given in full), the half-inhibitory concentration (IC50) (usually the point on the concentration scale where inhibition reaches its midpoint) with A-427 [1] was determined as 0.1 µM; with A-427 [2] it was 1 µM. Also, in data set [3], the concentration in solution (solubility) was 28 mg/mL (≈ 21.2 mM). This molecule showed an ED50 in the data set listed under Sus scrofa of 3.86 µM.

As to `CC(=O)O[C@H]1C(=O)[C@@]2(C)[C@H]([C@H](OC(=O)c3ccccc3)[C@]3(O)C[C@H](OC(=O)[C@H](O)[C@@H](NC(=O)c4ccccc4)c4ccccc4)C(C)=C1C3(C)C)[C@]1(OC(C)=O)CO[C@@H]1C[C@@H]2O` [PACLITAXEL], the ED50 in the data set listed under Sus scrofa is 0.86 µM.
